Data published in patent US11957683B2, “Bicyclic compounds” (Aligos Therapeutics, Inc., priority 2021, dated 2024).
Read-outs that look alike come from different tables or passages of the source.

How the values were obtained:
HBV = assay: HBV-DNA antiviral assay using HepG2.117 cells; assay type: cell-based, HBV genotype D; conditions: Hepatitis B virus
Experimental: (§1) The following assay procedure describes the HBV antiviral assay, using HepG2.117 cells, which carry a stably integrated genotype D HBV genome under the control of a Tet-off promoter, and intracellular HBV DNA quantification as endpoint. Cell viability is assessed in parallel by measuring the intracellular ATP content using CellTiter-Glo 2.0 (Promega).
On day 0, HepG2.117 cells (which are maintained in routine cell culture with doxycycline present in the medium at a final concentration of 1 μg/mL) are seeded in 96-well plates (white with clear bottom) at a density of 2.0×10^4 cells/well (0.1 mL/well) in medium without doxycycline to induce pgRNA transcription and subsequent formation of HBV particles. The cells are incubated at 37° C. and 5% CO2.
(§2) On day 1, medium is removed from each well, the test articles are diluted in culture medium without doxcycyline and 100 μL was added to cell culture wells (9 concentrations, 4-fold dilution). For each plate, 6 untreated (merely DMSO) wells are included. The final concentration of DMSO in the culture medium is 2%. Each plate is prepared in duplicate (one for HBV DNA extraction, one for CellTiter-Glo 2.0 measurement). The cells are incubated at 37° C. and 5% CO2 for 3 days.
(§3) On day 4, cell viability is assessed using CellTiter-Glo 2.0 and cell lysates are prepared for HBV DNA extraction and subsequent quantification by qPCR.
Medium is removed from each well and 100 μL of 0.33% NP-40 in H2O was added to each well. Plates are sealed, incubated at 4° C. for 5 mins, vortexed extensively and centrifuged briefly. Next, 35 μL of lysate is added to 65 μL QuickExtract DNA Extraction Solution (Epicentre) in a PCR plate for each well. PCR plate is incubated at 65° C. for 6 mins, 98° C. for 2 mins and finally cooled to 4° C. HBV DNA is then quantified by qPCR with HBV-specific primers and probes as specified in Table 2 using the Bio-Rad SSOAdvanced Universal Probes Supermix on a CFX96 machine (Bio-Rad). The PCR cycle program consisted of 95° C. for 3 mins, followed by 40 cycles at 95° C. for 10 sec and 60° C. for 30 sec.
A DNA standard is prepared by dilution of an IDT gBlock corresponding to the amplicon with concentrations ranging from 10^2 to 10^8 copies/input (i.e., per 4 μL) and used to generate a standard curve by plotting Cq values vs. HBV DNA standard concentration. The quantity of HBV DNA in each sample is determined by interpolating from the standard curve.
(§4) Cell viability is calculated as follows: % Cell viability=(luminescence value of test sample)/(average luminescence value of 2% DMSO control)×100%. HBV DNA inhibition was calculated as follows: 100−(HBV DNA copy number of test sample)/(average HBV DNA copy number of 2% DMSO control)×100%. No normalization to entecavir is required due to the excellent dynamic window of this assay. The CC50, EC50 and EC90 values were determined by dose-response curves fitted using non-linear regression.

[1] = Cell viability by CellTiter-Glo 2.0 (intracellular ATP) in HepG2.117 cells; assay type: cell-based; conditions: human, CellTiter-Glo 2.0, HepG2.117 cells, 3 days incubation
Experimental: as §1, §2, §3
Using the other plates, the cell viability is quantified by CellTiter-Glo 2.0 according to the manufacturer's manual. In brief, 100 μL of reagent solution is added to the culture plates and shaken for 2′. The plates are incubated at rt for 10 min and luminescence signal is subsequently measured on a VarioSkan Lux (ThermoFisher) plate reader.
as §4

[2] = 72 h, HBV DNA inhibition, intracellular HBV DNA by qPCR, HepG2.117 cells, 3 days incubation, read-out: EC50

SMILES	EC50 (HBV; [2]) [nM]	CC50 at 3 days [1] [nM]	EC50 (HBV; HepG2.117, 72 h) [nM]
C=C[C@H](C)Nc1nc2c(c(=O)n1-c1ccc(C(=O)NC)cc1Cl)C[C@@H](C)N(C(=O)c1ccc(Br)c(C(F)(F)F)c1)C2 (atropisomer, axis not shown) [Compound 44, 4-[(6R)-7-[4-bromo-3-(trifluoromethyl)benzoyl]-6-methyl-2-[[(1S)-1-methylallyl]amino]-4-oxo-6,8-dihydro-5H-pyrido[3,4-d]pyrimidin-3-yl]-3-chloro-N-methyl-benzamide]	< 50	> 50000	–
C=CC(C)Nc1nc2c(c(=O)n1-c1ccc(C(=O)NC)cc1)C[C@@H](C)N(C(=O)c1ccc(Br)c(C(F)(F)F)c1)C2 (single isomer, unassigned) [Compound 2a]	< 50	> 500	–
C=CC(C)Nc1nc2c(c(=O)n1-c1ccc(-c3[nH]nnc3C)cc1)C[C@@H](C)N(C(=O)c1ccc(Br)c(C(F)(F)F)c1)C2 (single isomer, unassigned) [Compound 3a]	< 50	> 500	–
C=C[C@H](C)Nc1nc2c(c(=O)n1-c1ccc(OCC(C)O)cc1)C[C@@H](C)N(C(=O)c1ccc(Br)c(C(F)(F)F)c1)C2 (stereo in doubt) [Compound 31, (R)-7-(4-bromo-3-(trifluoromethyl)benzoyl)-2-(((S)-but-3-en-2-yl)amino)-3-(4-((S)-2-hydroxypropoxy)phenyl)-6-methyl-5,6,7,8-tetrahydropyrido[3,4-d]pyrimidin-4(3H)-one]	< 50	29600	–
C=CC(C)(C)Nc1nc2c(c(=O)n1-c1ccc(C(=O)NC)cc1)C[C@@H](C)N(C(=O)c1ccc(Br)c(C(F)(F)F)c1)C2 [Compound 1, (R)-4-(7-(4-bromo-3-(trifluoromethyl)benzoyl)-6-methyl-2-((2-methylbut-3-en-2-yl)amino)-4-oxo-5,6,7,8-tetrahydropyrido[3,4-d]pyrimidin-3(4H)-yl)-N-methylbenzamide]	< 50	> 500	–
C=C[C@H](C)Nc1nc2c(c(=O)n1-c1ccc(-c3nnc(C)[nH]3)cc1)C[C@@H](C)N(C(=O)c1ccc(Br)c(C(F)(F)F)c1)C2 [Compound 4a, (R)-7-(4-bromo-3-(trifluoromethyl)benzoyl)-2-(((S)-but-3-en-2-yl)amino)-6-methyl-3-(4-(5-methyl-4H-1,2,4-triazol-3-yl)phenyl)-5,6,7,8-tetrahydropyrido[3,4-d]pyrimidin-4(3H)-one]	–	> 500	< 50
C=CCNc1nc2c(c(=O)n1-c1ccc(C(=O)NC)cc1)C[C@@H](C)N(C(=O)c1ccc(Br)c(C(F)(F)F)c1)C2 [Compound 5]	< 50	> 50000	–
C=CCN(C)c1nc2c(c(=O)n1-c1ccc(C(=O)NC)cc1)C[C@@H](C)N(C(=O)c1ccc(Br)c(C(F)(F)F)c1)C2 [Compound 6]	< 50	> 500	–
CNC(=O)c1ccc(-n2c(NCC=C(C)C)nc3c(c2=O)C[C@@H](C)N(C(=O)c2ccc(Br)c(C(F)(F)F)c2)C3)cc1 [Compound 7]	< 50	7350	–
C=CC1(Nc2nc3c(c(=O)n2-c2ccc(C(=O)NC)cc2)C[C@@H](C)N(C(=O)c2ccc(Br)c(C(F)(F)F)c2)C3)CCC1 [Compound 8]	< 50	7330	–
C=C[C@H](C)Nc1nc2c(c(=O)n1-c1cc(C(=O)NC)n(C)n1)C[C@@H](C)N(C(=O)c1ccc(Br)c(C(F)(F)F)c1)C2 [Compound 9, 3-((R)-7-(4-bromo-3-(trifluoromethyl)benzoyl)-2-(((S)-but-3-en-2-yl)amino)-6-methyl-4-oxo-5,6,7,8-tetrahydropyrido[3,4-d]pyrimidin-3(4H)-yl)-N,1-dimethyl-1H-pyrazole-5-carboxamide]	< 50	> 50000	–
C=CC(C)N(C)c1nc2c(c(=O)n1-c1ccc(C(=O)NC)cc1)C[C@@H](C)N(C(=O)c1ccc(Br)c(C(F)(F)F)c1)C2 (some centres unmarked) [Compound 10a]	< 50	> 50000	–
C=CC(Nc1nc2c(c(=O)n1-c1ccc(C(=O)NC)cc1)C[C@@H](C)N(C(=O)c1ccc(Br)c(C(F)(F)F)c1)C2)C1CC1 (some centres unmarked) [Compound 11a]	< 50	> 50000	–
C=C[C@H](C)Nc1nc2c(c(=O)n1-c1ccc(OC3CC3)cc1)C[C@@H](C)N(C(=O)c1ccc(Br)c(C(F)(F)F)c1)C2 [Compound 12, (R)-7-(4-bromo-3-(trifluoromethyl)benzoyl)-2-((S)-but-3-en-2-ylamino)-3-(4-cyclopropoxyphenyl)-6-methyl-5,6,7,8-tetrahydropyrido[3,4-d]pyrimidin-4(3H)-one]	< 50	> 50000	–
C=C[C@H](C)Nc1nc2c(c(=O)n1-c1ccc3c(c1)nnn3C)C[C@@H](C)N(C(=O)c1ccc(Br)c(C(F)(F)F)c1)C2 [Compound 13, (R)-7-(4-bromo-3-(trifluoromethyl)benzoyl)-2-(((S)-but-3-en-2-yl)amino)-6-methyl-3-(1-methyl-1H-benzo[d][1,2,3]triazol-5-yl)-5,6,7,8-tetrahydropyrido[3,4-d]pyrimidin-4(3H)-one]	< 50	48000	–
CNC(=O)c1ccc(-n2c(C#CC(C)(C)N)nc3c(c2=O)C[C@@H](C)N(C(=O)c2ccc(Br)c(C(F)(F)F)c2)C3)cc1 [Compound 14, (R)-4-(2-(3-amino-3-methylbut-1-yn-1-yl)-7-(4-bromo-3-(trifluoromethyl)benzoyl)-6-methyl-4-oxo-5,6,7,8-tetrahydropyrido[3,4-d]pyrimidin-3(4H)-yl)-N-methylbenzamide]	50 to 500	> 500	–
C=CC(Nc1nc2c(c(=O)n1-c1ccc(C(=O)NC)cc1)C[C@@H](C)N(C(=O)c1ccc(Br)c(C(F)(F)F)c1)C2)C1CCC1 (some centres unmarked) [Compound 15]	< 50	> 500	–
C=CC(COC)Nc1nc2c(c(=O)n1-c1ccc(C(=O)NC)cc1)C[C@@H](C)N(C(=O)c1ccc(Br)c(C(F)(F)F)c1)C2 (some centres unmarked) [Compound 16]	< 50	> 500	–
C=C[C@H](C)Nc1nc2c(c(=O)n1-c1ccc3c(c1)ncn3C)C[C@@H](C)N(C(=O)c1ccc(Br)c(C(F)(F)F)c1)C2 [Compound 17, (R)-7-(4-bromo-3-(trifluoromethyl)benzoyl)-2-(((S)-but-3-en-2-yl)amino)-6-methyl-3-(1-methyl-1H-benzo[d]imidazol-5-yl)-5,6,7,8-tetrahydropyrido[3,4-d]pyrimidin-4(3H)-one]	< 50	> 500	–
C=C[C@@H](C)Nc1nc2c(c(=O)n1-c1ccc3c(c1)ncn3C)C[C@@H](C)N(C(=O)c1ccc(Br)c(C(F)(F)F)c1)C2 [Compound 18, (R)-7-(4-bromo-3-(trifluoromethyl)benzoyl)-2-(((R)-but-3-en-2-yl)amino)-6-methyl-3-(1-methyl-1H-benzo[d]imidazol-5-yl)-5,6,7,8-tetrahydropyrido[3,4-d]pyrimidin-4(3H)-one]	< 50	> 500	–
C=C[C@@H](C)Nc1nc2c(c(=O)n1-c1ccc(C(=O)NC)c(Cl)c1)C[C@@H](C)N(C(=O)c1ccc(Br)c(C(F)(F)F)c1)C2 [Compound 19, 4-((R)-7-(4-bromo-3-(trifluoromethyl)benzoyl)-2-(((R)-but-3-en-2-yl)amino)-6-methyl-4-oxo-5,6,7,8-tetrahydropyrido[3,4-d]pyrimidin-3(4H)-yl)-2-chloro-N-methylbenzamide]	< 50	> 500	–
C=C[C@H](C)Nc1nc2c(c(=O)n1-c1ccc(C(=O)NC)c(Cl)c1)C[C@@H](C)N(C(=O)c1ccc(Br)c(C(F)(F)F)c1)C2 [Compound 20, 4-((R)-7-(4-bromo-3-(trifluoromethyl)benzoyl)-2-(((S)-but-3-en-2-yl)amino)-6-methyl-4-oxo-5,6,7,8-tetrahydropyrido[3,4-d]pyrimidin-3(4H)-yl)-2-chloro-N-methylbenzamide]	< 50	2950	–
